Patent publication US20040259806A1 (priority 2001, published 2004)
Where two headings read alike, the source gives them in different places.

Legend:
tuberculosis [1] = assay: SCV-07 therapy with continued traditional antituberculosis therapy in a patient (Example 2); type: in vivo, human
Description: A patient was admitted to the hospital with infiltrative tuberculosis, destructive phase in the upper lobe and 6th segment of the right lung and 4-5th segments of the left lung. Prior to SCV-07 therapy, symptoms of bacterial intoxication, dyspnea and rales above the damaged lobes were present. […] Large foci of lung destruction surrounded by perifocal inflammation were found in the lingual lobe of the left lung. […] During immunological response assays, a decrease of CD4+ and CD8+ subsets and low lymphocyte blasttransformation responses with PHA and PPD were detected.
After two months of traditional therapy a small improvement in the patient's condition was seen; however, the reoentgenological picture was without significant change and immune responses remained inhibited.
SCV-07 was injected intramuscularly at 0.1 mg, once per day, for 5 days with continued traditional antituberculosis therapy (isoniazid at 600 mg/day intravenously, pyrazinamid at 1500 mg/day per so, rifampicin at 450 mg/day per os, kanamycin at 1000 mg/day intramuscularly). The clinical improvement was significant. Sputum culture tests became negative, cavities closed and infiltrative foci resolved. […] A normal range is approximately 26-40%. […] Finally, the blasttransformation response with PHA increased from 29% to 40%. A normal level is approximately 50%.

tuberculosis [2] = assay: SCV-07 in patients with destructive lung tuberculosis, 20 treated versus 15 control (Example 3); type: in vivo, human
Protocol: Patients with destructive lung tuberculosis, untreated previously or after inadequate antituberculosis therapy were treated. All patients received antituberculosis therapy consisting of intravenous isoniazid and four to five other drugs and the condition of each patient was examined daily. Major diagnostic criteria included physical examination, chest X-ray, sputum bacterioscopy and culture, broncho alveolar lavage examination. Also included were blood counts performed in all patients prior to SCV-07 therapy and then once per week. Blood biochemical tests including blood fibrinogen, β-lipoproteins, urea, creatinine, C-reactive protein levels, activity of alanine and asparagine transaminases were performed once per month and more frequently if needed. Sputum cultures were taken prior to therapy and one and three months after SCV-07 therapy, and serologic assays including indirect hemaglutination tests.
Bilateral lung injury was found in 11 patients. […] In all cases, the pathological process was destructive. […] Immature cavities were diagnosed in 3 cases. Multiple cavities, X-ray markers and exudative inflammation predominated in all patients.
Females slightly predominated the experimental group (55%). Patients ranged in age from 20 to 40 years of age. All patients had symptoms of toxemia, including 4 patients with severe symptoms.
Immunological studies included counting the percentage of peripheral blood lymphocyte subsets such as CD3+, CD4+, CD8+, CD20+, CD25+ and CD95+ using monoclonal antibodies. The CD4/CD8 index was calculated as well. Elevation of CD3+ and CD4+ cell levels were apparent in 7 out of 14 patients immediately after SCV-07 therapy.
Phytohemagglutinin (PHA) and purified protein derivate (PPD)-induced lymphocytes blasttransformation were also investigated.

M. bovis 8 = type: in vivo, mice
blood leukocytes = type: in vivo, mice
thymic cells = assay: Thymic cell proliferation (3H-thymidine) from treated infected mice; type: in vivo
Protocol: Mice thymuses were collected aseptically, homogenized, suspended in RPMI-1640 medium and filtered through two layers of sterile gauze. Cell suspensions were washed twice in RPMI-1640 with 2 mM L-glutamine and […] gentamycin, then counted using a Goriaev hemocytometer.
Spleen cells and thymic cells were isolated as described above. In vitro, thymic cells were diluted to 10^7/ml in RPMI-1640 with 2 mM L-glutamine, 80 ìg/ml gentamycin and 4% heat-inactivated fetal calf serum (Sigma, St. Louis, Mo.). Spleen cells were diluted to 3×10^6/ml in RPMI-1640 with 2 mM L-glutamine, 80 ìg/ml gentamycin and 20% inactivated fetal calf serum. 0.5 ìg/ml Concanavalin A (Con A, Sigma, St. Louis, Mo.) was used to stimulate thymic cell proliferation. For spleen cell proliferation, 0.5 ìg/ml Con A, 10 ìg/ml lipopolysaccharide (Sigma, St. Louis, Mo.), and 50 ìg/ml tuberculin purified protein derivative (PPD) were utilized. The assay was carried out in 96-well plates and cell cultures were incubated for 72 hours, or 96 hours if tuberculin was used, at 37° C. in humidified 5% CO2, then pulsed with 5 ìl Ci/ml ^3H-thymidine overnight (approximately 16 h) and harvested on filters using a semi-automated harvester (Titertek™, Flow Laboratories, Norway). Filters were dried and proliferation calculated by ^3H-thymidine incorporation by counting samples in a liquid scintillation counter (LKB 1217 Racketa, Wallace, Sweden). Data was expressed in impulses per minute.

peritoneal macrophages = assay: Phagocytosis and killing of Saccharomyces cerevisiae by peritoneal macrophages of treated infected mice; type: in vivo
Protocol: In order to study phagocytosis, peritoneal macrophages were plated at a concentration of 10^6 cells per Petri dish and media including 10^7 Saccharomyces cerevisiae cells, opsonized by mice serum was added. Results were evaluated using the Mann-Whitney test. Phagocytic activity was calculated after determination of percentage of macrophages involved in phagocytes. The phagocytic index was determined by calculating the average number of yeast phagocytosed per one cell. Killing activity was resolved by the number of yeast digested by macrophages after 1.5 h of incubation. Finally, the killing index was determined as follows: [formula]

[3] = SCV-07 im 0.1 mg once per day for 5 days with continued traditional therapy
[4] = 24 days after end of therapy, Group 7 (0.1 ìg/kg ip) versus Group 3 (isoniazid control)
[5] = 17 days after SCV-07 therapy, Groups 8 and 9 (0.01 ìg/kg ip and 1 ìg/kg po)

N[C@H](CCC(=O)N[C@@H](Cc1c[nH]c2ccccc12)C(=O)O)C(=O)O [SCV-07, γ-D-glutamyl-L-tryptophan]
Immunological responses (tuberculosis [1]; [3]): close to normal
Sputum culture tests (tuberculosis [1]; [3]): negative
cavities (tuberculosis [1]; [3]): closed
infiltrative foci (tuberculosis [1]; [3]): resolved
clinical improvement (tuberculosis [1]; SCV-07 intramuscularly 0.1 mg once per day for 5 days with continued traditional therapy): significant
CD3+ lymphocytes (tuberculosis [1]; post SCV-07, increased from 1.011×10^9/l): 1.441e+09 L⁻¹
CD8+ numbers (tuberculosis [1]; post SCV-07, increased from 12%, normal range approximately 26-40%): 21%
blasttransformation response with PHA (tuberculosis [1]; post SCV-07, increased from 29%, normal level approximately 50%): 40%
Lymphocyte functional abilities (tuberculosis [1]; post SCV-07 treatment): markedly elevated
IL-2 production after stimulation with the mitogens PHA and PPD (tuberculosis [2]; SCV-07 treated patients): greatly increased
Cavity closure, patients (tuberculosis [2]; after 3 months of observation, 13.3% in the control group): 25%
Negative sputum culture tests, patients (tuberculosis [2]; after 3 months, 33.3% in the control group): 65%
Negative sputum culture tests, patients (tuberculosis [2]; after a month of observation, 13.3% in the control group): 30%
Serum bilirubin, creatinine, urea, alanine and asparagine transaminase (tuberculosis [2]; during SCV-07 therapy): stabilized
Hematological signs of tuberculosis activity including white blood cell counts and ESR (tuberculosis [2]; experimental group): mostly diminished
body temperature (tuberculosis [2]; experimental group): decreased in all cases
Moist rates resolved (tuberculosis [2]; experimental group (20 patients)): 16 patients
T-cell blasttransformation responses (PHA, PPD) (tuberculosis [2]; experimental group compared with control group): markedly increased
chest X-ray and tomogram (tuberculosis [2]; following two months of SCV-07 therapy): resolution of the infiltrate-like shadow
CD4+/CD8+ ratio (tuberculosis [2]; immediately after SCV-07 therapy): increased
Serum biochemical inflammation markers such as fibrinogen, β-lipoprotein, CRP (tuberculosis [2]; in one month): decreased
Elevation of CD3+ and CD4+ cell levels, patients (tuberculosis [2]; out of 14 patients, immediately after SCV-07 therapy): 7 patients
Toxemia symptoms substantially resolved (tuberculosis [2]; within a month, experimental group (20 patients), with antituberculosis therapy): half of the patients
M. bovis growth in spleen culture (M. bovis 8; 5 daily injections of 0.01 ìg/kg): decreases
differences between the control and experimental groups (M. bovis 8; 10 days and 17 days after termination of treatment, groups other than Group 7): lacked significance
growth of M bovis cultured from spleens (M. bovis 8; [4]): 200±0 CFU
lung weight index (M. bovis 8; [4]): 1.38±0.06
spleen weight index (M. bovis 8; [4]): 1.59±0.25
increase in body weight (M. bovis 8; 24 days after end of therapy, Group 7 (SCV-07 0.1 ìg/kg ip, 5 injections, with isoniazid) versus Group 3 (isoniazid control)): 30.8%
M. bovis growth in spleen cultures, significant decrease (M. bovis 8; Group 5 (1 ìg/kg ip, 5 injections), 24 days after treatment): this trend did not occur
M. bovis growth in spleen cultures (M. bovis 8; Group 6 (1 ìg/kg ip, 10 injections), 24 days after treatment, 275±14.1 CFU in the control): 190±21.5 CFU
lung damage index, difference to isoniazid control (Group 3) (M. bovis 8; Group 7 (0.1 ìg/kg ip), 4 days after therapy): Significant differences
lung damage index (M. bovis 8; Group 7 (0.1 ìg/kg ip), 10 days and 17 days after termination of treatment): considerably differed from the control
lung damage index, difference to untreated controls (Group 2) (M. bovis 8; Groups 5, 7, 8 and 9 (1, 0.1, 0.01 ìg/kg ip and 1 ìg/kg po), 4 days after therapy): significant differences
lung damage index (M. bovis 8; all doses, 4 days after the end of 5 days of therapy (Day 28 of infection)): decreased
Significant changes in blood lymphocytes and neutrophilic granulocytes (blood leukocytes; 4 days after therapy): not observed
monocyte levels (blood leukocytes; 10 days after therapy, Groups 6, 7, 8 and 9 compared with Group 3, the isoniazid control): decrease
lymphocyte numbers (blood leukocytes; [5]): increase
percent of neutrophils (blood leukocytes; [5]): significant decrease
basal thymic cell proliferation (thymic cells; SCV-07 treated (Groups 4 to 9) versus control (Groups 1 to 3)): No significant differences
Con A stimulated thymic cell proliferation (thymic cells; after 4 days, Group 7 (0.1 ìg/kg ip) in comparison to Group 3 (isoniazid control)): significantly higher
Con A stimulated thymic cell proliferation response (thymic cells; day 17, Groups 7 and 8 (0.1 and 0.01 ìg/kg ip)): essentially the same response as uninfected mice
Con A stimulated thymic cell proliferation (thymic cells; day 24, Groups 6, 7 and 8 (1 ìg/kg 10 injections ip, 0.1 and 0.01 ìg/kg ip)): higher numbers than the isoniazid control
macrophage killing (peritoneal macrophages; 24 days after treatment, Groups 6 and 7 (1.0 ìg/kg, 10 injections and 0.1 ìg/kg ip)): significantly improved
phagocytic activity (peritoneal macrophages; after 4 days, Group 7 (SCV-07 0.1 ìg/kg ip) compared to Group 3 (isoniazid control), p≦0.05, 64.2% in uninfected mice): 38.8%
phagocytic index (peritoneal macrophages; after 4 days, SCV-07 treatment): normalized
killing (peritoneal macrophages; after 4 days, SCV-07 versus control, p≦0.05): 244.4
killing and the killing index (peritoneal macrophages; after 17 days, Group 6 (1.0 ìg/kg ip, 10 injections)): significantly increased
phagocytic activity (peritoneal macrophages; after 17 days, Group 6 (1.0 ìg/kg ip, 10 injections) versus Group 3 (isoniazid control)): 60.4%
phagocytic index (peritoneal macrophages; after 17 days, Group 6 (1.0 ìg/kg ip, 10 injections) versus Group 3, p=0.05): 6.88 U
killing (peritoneal macrophages; ten days after therapy, Group 5 (1 ìg/kg, ip) compared to the control): significantly increased
ingestion and killing (peritoneal macrophages; ten days after therapy, Groups 8 and 9 (0.01 ìg/kg ip and 1 ìg/kg po)): tendency toward decreased
